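Five compound concentrations were applied to cells in 96-well plates for 48 hours; endpoints were derived by simple linear interpolation of the resulting dose-response curve. GI50: concentration for 50% inhibition of growth.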 Calls of active or inactive are those of the source. Rule as the data show it: active = GI50 up to about 1.1 µM and inactive = higher.

Test systems include MDA-N; DU-145; OVCAR-3; SF-295; MOLT-4; UACC-62; HCC 2998; M14; UO-31; HCT-116; OVCAR-5; HOP-92; K562; MDA-MB-435; NCI-H23; HOP-62; UACC-257; SK-MEL-2; ACHN.
What all share (assay): NCI tumour cell line growth inhibition, 48 h

Take `Cc1cccc(-c2nc(-c3cnccn3)n(Cc3ccccc3)n2)c1`: the GI50 was > 100 µM (inactive) in the assay on MDA-N; > 100 µM (inactive) with DU-145; > 100 µM (inactive) with OVCAR-3; 50.8 µM (inactive) with SF-295; > 100 µM (inactive) in the assay with MOLT-4; 70.8 µM (inactive) with UACC-62. For the same compound, the GI50 was > 100 µM (inactive) in the assay on HCC 2998; > 100 µM (inactive) with M14; > 100 µM (inactive) in the assay on UO-31; > 100 µM (inactive) in the assay on HCT-116; > 100 µM (inactive) with OVCAR-5; 34 µM (inactive) in the assay with HOP-92. For the same compound, the GI50 in the assay with K562 is > 100 µM (inactive); in the assay on MDA-MB-435 it was > 100 µM (inactive); in the assay with NCI-H23 it was > 100 µM (inactive); in the assay on HOP-62 it was 35.1 µM (inactive); in the assay with UACC-257 it was > 100 µM (inactive).
`Cc1ncc([N+](=O)[O-])n1CCNS(=O)(=O)CCCn1ncnc1[N+](=O)[O-]`: the GI50 with MDA-N, in the assay with DU-145, with OVCAR-3, in the assay with SF-295, in the assay on MOLT-4 and in the assay with UACC-62 was > 100 µM (inactive) each time. For the same compound, the GI50 with M14, in the assay on UO-31, in the assay with HCT-116, in the assay on OVCAR-5, with HOP-92 and in the assay on K562 was > 100 µM (inactive) in each case. Further, the GI50 with SK-MEL-2, in the assay on MDA-MB-435, in the assay with NCI-H23, with HOP-62, in the assay with ACHN and with UACC-257 was > 100 µM (inactive) each time.
As to `CN(c1ccccc1)S(=O)(=O)c1ccccc1[N+](=O)[O-]`, the GI50 with MDA-N is > 100 µM (inactive); in the assay on DU-145 it was > 100 µM (inactive); in the assay on OVCAR-3 it was > 100 µM (inactive); with SF-295 it was > 100 µM (inactive); in the assay with MOLT-4, 26.2 µM (inactive); with UACC-62 it was > 100 µM (inactive). In addition, the GI50 in the assay on HCC 2998 was > 100 µM (inactive); in the assay on M14, > 100 µM (inactive); in the assay on UO-31, > 100 µM (inactive); with HCT-116 it was 97.5 µM (inactive); in the assay on OVCAR-5, > 100 µM (inactive); in the assay on K562, 36.3 µM (inactive). Also, the GI50 in the assay on SK-MEL-2 is > 100 µM (inactive); in the assay on MDA-MB-435, 71.9 µM (inactive); in the assay with NCI-H23, > 100 µM (inactive); in the assay with HOP-62, > 100 µM (inactive); with ACHN, > 100 µM (inactive); in the assay with UACC-257, > 100 µM (inactive).
Turning to `C[N+]1(CCCl)CC[N+](C)(CCCl)CC1` (configuration not stated), the GI50 in the assay on MDA-N is > 100 µM (inactive); with DU-145 it was > 100 µM (inactive); in the assay with OVCAR-3 it was > 100 µM (inactive); in the assay on SF-295, > 100 µM (inactive); in the assay with MOLT-4, 83.6 µM (inactive); in the assay with UACC-62, > 100 µM (inactive). Also, the GI50 is > 100 µM (inactive) with M14; 99.5 µM (inactive) in the assay on UO-31; > 100 µM (inactive) in the assay with HCT-116; > 100 µM (inactive) in the assay with OVCAR-5; > 100 µM (inactive) in the assay on K562; > 100 µM (inactive) with SK-MEL-2. Further, the GI50 in the assay on MDA-MB-435, with NCI-H23, with HOP-62, in the assay on ACHN and in the assay on UACC-257 was > 100 µM (inactive) throughout.
As to `O=C1C(Cl)=C(NCCN2CCOCC2)C(=O)c2c(O)ccc(O)c21`, the GI50 is 1.9 µM (inactive) in the assay with MDA-N; 1.71 µM (inactive) in the assay with DU-145; 2.49 µM (inactive) in the assay with OVCAR-3; 1.87 µM (inactive) in the assay with SF-295; 1.54 µM (inactive) in the assay on MOLT-4; 1.48 µM (inactive) in the assay on UACC-62. Further, the GI50 is 1.89 µM (inactive) with HCC 2998; 1.84 µM (inactive) with M14; 2.36 µM (inactive) with UO-31; 1.55 µM (inactive) in the assay on HCT-116; 1 µM (active) in the assay on OVCAR-5; 2.69 µM (inactive) with HOP-92. Also, the GI50 was 2.06 µM (inactive) in the assay on K562; 1.64 µM (inactive) in the assay on MDA-MB-435; 1 µM (active) with NCI-H23; 1.92 µM (inactive) in the assay on HOP-62; 2.7 µM (inactive) in the assay on ACHN; 2.11 µM (inactive) with UACC-257.
Turning to `CC(C)CN1CN(c2ccccc2)C2(CCN(CC(C)(c3ccc(F)cc3)C3OCCO3)CC2)C1=O` (configuration not stated), the GI50 is 6.84 µM (inactive) with MDA-N; 4.1 µM (inactive) with DU-145; 10.3 µM (inactive) with OVCAR-3; 3.87 µM (inactive) in the assay on SF-295; 2.4 µM (inactive) in the assay on MOLT-4; 6.92 µM (inactive) in the assay with UACC-62. Further, the GI50 is 2.39 µM (inactive) in the assay with HCC 2998; 2.36 µM (inactive) in the assay on M14; 2.7 µM (inactive) in the assay on UO-31; 4.51 µM (inactive) in the assay with HCT-116; 13 µM (inactive) in the assay on OVCAR-5; 3.08 µM (inactive) in the assay on K562. The GI50 is 2.89 µM (inactive) in the assay on SK-MEL-2; 6.62 µM (inactive) in the assay with MDA-MB-435; 2.09 µM (inactive) with NCI-H23; 3.45 µM (inactive) in the assay on HOP-62; 4.16 µM (inactive) in the assay on ACHN; 3.04 µM (inactive) with UACC-257.
`O=S(=O)(O)c1c(/N=N/c2c(O)ccc3ccccc23)ccc2ccccc12`: the GI50 in the assay on MDA-N, in the assay with DU-145, in the assay on OVCAR-3, in the assay with SF-295, in the assay on MOLT-4 and in the assay on UACC-62 was > 100 µM (inactive) throughout. In addition, the GI50 in the assay on M14 is > 100 µM (inactive); with UO-31, 76.7 µM (inactive); in the assay on HCT-116, > 100 µM (inactive); with OVCAR-5, > 100 µM (inactive); in the assay on HOP-92, > 100 µM (inactive); with K562, > 100 µM (inactive). The GI50 with SK-MEL-2, in the assay on MDA-MB-435, in the assay with NCI-H23, in the assay with HOP-62 and with UACC-257 was > 100 µM (inactive) in each case.
In the case of `CCOC(=O)CCc1cn2cc(Br)nc(OC)c2n1`, the GI50 in the assay with MDA-N was 3.1 µM (inactive); in the assay with DU-145 it was 51.6 µM (inactive); in the assay on OVCAR-3 it was 57.7 µM (inactive); in the assay on SF-295, 57.7 µM (inactive); in the assay with MOLT-4 it was 13.3 µM (inactive); with UACC-62 it was 36 µM (inactive). The GI50 is > 100 µM (inactive) with HCC 2998; > 100 µM (inactive) in the assay with M14; 23.2 µM (inactive) with UO-31; 14.8 µM (inactive) with HCT-116; 4.75 µM (inactive) in the assay with K562; > 100 µM (inactive) in the assay on SK-MEL-2. The GI50 is 2.82 µM (inactive) with MDA-MB-435, 67.5 µM (inactive) with NCI-H23, 53.2 µM (inactive) in the assay on HOP-62 and > 100 µM (inactive) with UACC-257.
In the case of `c1ccc(-c2nnn3c2NC2=C(CCCC2)C3c2ccccc2)cc1` (configuration not stated), the GI50 is 12.9 µM (inactive) in the assay with MDA-N; 17.7 µM (inactive) in the assay with DU-145; 18.4 µM (inactive) with OVCAR-3; 20.7 µM (inactive) in the assay on SF-295; 0.425 µM (active) with MOLT-4; 16.4 µM (inactive) in the assay with UACC-62. Further, the GI50 in the assay with M14 is 18.8 µM (inactive); in the assay with UO-31, 17.1 µM (inactive); in the assay with HCT-116, 12 µM (inactive); in the assay with OVCAR-5, 16 µM (inactive); in the assay on K562, 10.3 µM (inactive); in the assay on SK-MEL-2 it was 16.2 µM (inactive). In addition, the GI50 with MDA-MB-435 is 5.71 µM (inactive); in the assay on NCI-H23 it was 25.8 µM (inactive); in the assay with HOP-62 it was 16.4 µM (inactive); with ACHN, 1.47 µM (inactive); with UACC-257, 21.2 µM (inactive).
Consider `CCCC(=O)n1[nH]c(=O)n(-c2ccc(Cl)cc2)c1=O`, for which the GI50 in the assay on MDA-N, in the assay with DU-145, in the assay on OVCAR-3, with SF-295, with MOLT-4 and in the assay on UACC-62 was > 100 µM (inactive) each time. Moreover, the GI50 in the assay on HCC 2998, with M14, in the assay on UO-31, in the assay with HCT-116, with OVCAR-5 and with K562 was > 100 µM (inactive) each time. The GI50 in the assay on SK-MEL-2, in the assay with MDA-MB-435, in the assay on NCI-H23, in the assay on HOP-62, with ACHN and in the assay with UACC-257 was > 100 µM (inactive) in each case.
Take `Cc1nc2cc([N+](=O)[O-])ccc2c(NCCCN(C)C)c1C`: the GI50 is 14.8 µM (inactive) with MDA-N; 21.7 µM (inactive) in the assay with DU-145; 6.31 µM (inactive) in the assay on OVCAR-3; 17.3 µM (inactive) in the assay with SF-295; 1.91 µM (inactive) with MOLT-4; 15.6 µM (inactive) in the assay with UACC-62. The GI50 in the assay on M14 was 13.8 µM (inactive); in the assay with UO-31, 14.7 µM (inactive); with HCT-116 it was 4.68 µM (inactive); in the assay on OVCAR-5, 13.2 µM (inactive); in the assay on HOP-92, 1.95 µM (inactive); in the assay with K562, 3.77 µM (inactive). The GI50 in the assay on SK-MEL-2 is 10.5 µM (inactive); in the assay with MDA-MB-435 it was 15.6 µM (inactive); in the assay on NCI-H23 it was 4.03 µM (inactive); with HOP-62, 10.9 µM (inactive); in the assay with ACHN, 20 µM (inactive); in the assay with UACC-257, 5.45 µM (inactive).
